{"source": "ChEMBL document CHEMBL5528028", "about": "“Discovery of benzopyridone cyanoacetates as new type of potential broad-spectrum antibacterial candidates” (Eur J Med Chem, 2024)", "key": {"Staphylococcus aureus [1]": {"tested_on": "Staphylococcus aureus", "assay": "Bactericidal activity against Staphylococcus aureus ATCC 29213 assessed as time dependent killing at 4 times of MIC measured at 8 hrs", "type": "functional, organism-based"}, "Klebsiella pneumoniae [2]": {"tested_on": "Klebsiella pneumoniae", "assay": "Bactericidal activity against Klebsiella pneumonia assessed as time dependent killing at 4 times of MIC measured at 8 hrs", "type": "functional, organism-based"}, "Staphylococcus aureus [3]": {"tested_on": "Staphylococcus aureus", "assay": "Induction of resistance development in Staphylococcus aureus ATCC 29213 assessed as after 20 passages measured upto 4.5 times of MIC", "type": "functional"}, "Klebsiella pneumoniae [4]": {"tested_on": "Klebsiella pneumoniae", "assay": "Induction of resistance development in Klebsiella pneumonia assessed as after 20 passages measured upto 4.5 times of MIC", "type": "functional"}, "Staphylococcus aureus [5]": {"tested_on": "Staphylococcus aureus", "assay": "Anti-biofilm activity against Staphylococcus aureus ATCC 29213 assessed as relative biofilm clearance rate by crystal violet staining based assay", "type": "functional, organism-based"}, "Klebsiella pneumoniae [6]": {"tested_on": "Klebsiella pneumoniae", "assay": "Anti-biofilm activity against Klebsiella pneumonia assessed as relative biofilm clearance rate by crystal violet staining based assay", "type": "functional, organism-based"}, "Cell membrane [7]": {"tested_on": "Cell membrane", "assay": "Induction of outer membrane permeability in Klebsiella pneumonia assessed as increase in fluorescence intensity at 2 times of MIC by N-phenyl naphthylamine (NPN) dye based assay", "type": "cell membranes", "conditions": "Klebsiella pneumoniae"}, "Cell membrane [8]": {"tested_on": "Cell membrane", "assay": "Induction of inner membrane permeability in Staphylococcus aureus ATCC 29213 assessed as increase in fluorescence intensity by propidium iodide uptake based microscopic imaging assay", "type": "cell membranes"}, "Cell membrane [9]": {"tested_on": "Cell membrane", "assay": "Induction of inner membrane permeability in Klebsiella pneumonia assessed as increase in fluorescence intensity by propidium iodide uptake based microscopic imaging assay", "type": "cell membranes", "conditions": "Klebsiella pneumoniae"}, "Cell membrane [10]": {"tested_on": "Cell membrane", "assay": "Induction of cytoplasmic membrane depolarization in Staphylococcus aureus ATCC 29213 assessed as increase in fluorescence intensity at 2 times of MIC measured upto 40 mins by DiSC35 dye based fluorescence method", "type": "cell membranes"}, "Cell membrane [11]": {"tested_on": "Cell membrane", "assay": "Induction of cytoplasmic membrane depolarization in Klebsiella pneumonia assessed as increase in fluorescence intensity at 2 times of MIC measured upto 40 mins by DiSC35 dye based fluorescence method", "type": "cell membranes", "conditions": "Klebsiella pneumoniae"}, "Cell membrane [12]": {"tested_on": "Cell membrane", "assay": "Induction of disruption of membrane integrity in Staphylococcus aureus ATCC 29213 assessed as leakage of intracellular proteins by Acid Blue 90 based assay", "type": "cell membranes"}, "Cell membrane [13]": {"tested_on": "Cell membrane", "assay": "Induction of disruption of membrane integrity in Klebsiella pneumonia assessed as leakage of intracellular proteins by Acid Blue 90 based assay", "type": "cell membranes", "conditions": "Klebsiella pneumoniae"}, "Staphylococcus aureus [14]": {"tested_on": "Staphylococcus aureus", "assay": "Antibacterial activity against Staphylococcus aureus ATCC 29213 assessed as morphological changes by measuring shrunken and cracked cells at 4 times of MIC by SEM microscopic analysis", "type": "functional, organism-based"}, "Klebsiella pneumoniae [15]": {"tested_on": "Klebsiella pneumoniae", "assay": "Antibacterial activity against Klebsiella pneumonia assessed as morphological changes by measuring shrunken and cracked cells at 4 times of MIC by SEM microscopic analysis", "type": "functional, organism-based"}, "Calf thymus DNA [16]": {"tested_on": "Calf thymus DNA", "assay": "Binding affinity to calf thymus DNA assessed as change in absorption by UV-Vis absorption spectra analysis", "type": "nucleic-acid assay", "conditions": "Bos taurus"}, "Calf thymus DNA [17]": {"tested_on": "Calf thymus DNA", "assay": "Induction of calf thymus DNA double helix loss assessed as reduction in fluorescence intensity at 525 nm wavelength by acridine orange competition based assay", "type": "nucleic-acid assay", "conditions": "Bos taurus"}, "Staphylococcus aureus [18]": {"tested_on": "Staphylococcus aureus", "assay": "Induction of ROS generation in Staphylococcus aureus ATCC 29213 assessed as increase in fluorescence intensity by DCFH-DA based microscopic analysis", "type": "functional, organism-based"}, "Klebsiella pneumoniae [19]": {"tested_on": "Klebsiella pneumoniae", "assay": "Induction of ROS generation in Klebsiella pneumonia assessed as increase in fluorescence intensity by DCFH-DA based microscopic analysis", "type": "functional, organism-based"}, "Staphylococcus aureus [20]": {"tested_on": "Staphylococcus aureus", "assay": "Induction of ROS generation in Staphylococcus aureus ATCC 29213 assessed as loss of GSH activity by Ellmans method", "type": "functional, organism-based"}, "Klebsiella pneumoniae [21]": {"tested_on": "Klebsiella pneumoniae", "assay": "Induction of ROS generation in Klebsiella pneumonia assessed as loss of GSH activity by Ellmans method", "type": "functional, organism-based"}, "Staphylococcus aureus [22]": {"tested_on": "Staphylococcus aureus", "assay": "Antibacterial activity against Staphylococcus aureus ATCC 29213 assessed as decrease in relative metabolic activity at 4 times of MIC by Alamar Blue assays", "type": "functional, organism-based"}, "Klebsiella pneumoniae [23]": {"tested_on": "Klebsiella pneumoniae", "assay": "Antibacterial activity against Klebsiella pneumonia assessed as decrease in relative metabolic activity at 4 times of MIC by Alamar Blue assays", "type": "functional, organism-based"}, "Staphylococcus aureus [24]": {"tested_on": "Staphylococcus aureus", "assay": "Antibacterial activity against methicillin-resistant Staphylococcus aureus assessed growth inhibition by micro broth dilution method", "type": "functional"}, "Staphylococcus aureus [25]": {"tested_on": "Staphylococcus aureus", "assay": "Antibacterial activity against Staphylococcus aureus assessed growth inhibition by micro broth dilution method", "type": "functional"}, "Staphylococcus aureus [26]": {"tested_on": "Staphylococcus aureus", "assay": "Antibacterial activity against Staphylococcus aureus ATCC 25923 assessed growth inhibition by micro broth dilution method", "type": "functional"}, "Staphylococcus aureus [27]": {"tested_on": "Staphylococcus aureus", "assay": "Antibacterial activity against Staphylococcus aureus ATCC 29213 assessed growth inhibition by micro broth dilution method", "type": "functional"}, "Enterococcus faecalis": {"tested_on": "Enterococcus faecalis", "assay": "Antibacterial activity against Enterococcus faecalis assessed growth inhibition by micro broth dilution method", "type": "functional"}, "Klebsiella pneumoniae [28]": {"tested_on": "Klebsiella pneumoniae", "assay": "Antibacterial activity against Klebsiella pneumonia assessed growth inhibition by micro broth dilution method", "type": "functional"}, "Escherichia coli [29]": {"tested_on": "Escherichia coli", "assay": "Antibacterial activity against Escherichia coli assessed growth inhibition by micro broth dilution method", "type": "functional"}, "Escherichia coli [30]": {"tested_on": "Escherichia coli", "assay": "Antibacterial activity against Escherichia coli ATCC 25922 assessed growth inhibition by micro broth dilution method", "type": "functional"}, "Pseudomonas aeruginosa [31]": {"tested_on": "Pseudomonas aeruginosa", "assay": "Antibacterial activity against Pseudomonas aeruginosa assessed growth inhibition by micro broth dilution method", "type": "functional"}, "Pseudomonas aeruginosa [32]": {"tested_on": "Pseudomonas aeruginosa", "assay": "Antibacterial activity against Pseudomonas aeruginosa ATCC 27853 assessed growth inhibition by micro broth dilution method", "type": "functional"}, "Acinetobacter baumannii": {"tested_on": "Acinetobacter baumannii", "assay": "Antibacterial activity against Acinetobacter baumannii assessed growth inhibition by micro broth dilution method", "type": "functional"}, "Erythrocyte": {"tested_on": "Erythrocyte", "assay": "Hemolytic activity in human RBC incubated measured upto 128 ug/ml", "type": "toxicity, cell-based", "conditions": "dose < 128 µg/ml"}, "[33]": {"assay": "Cytotoxicity against human NOK cells assessed as cell viability at 8 ug/ml", "type": "toxicity, cell-based", "conditions": "nok-si, dose 8 µg/ml"}, "[34]": {"assay": "Cytotoxicity against human FHC cells assessed as cell viability at 8 ug/ml", "type": "toxicity, cell-based", "conditions": "at 8 µg/mL, read-out: Activity"}}, "note": "The source made the active and inactive calls. The calls are words filed in the database; no cut-off is given here."}
{"smiles": "CCCCCCCCn1cc(C(=O)OCC)c(=O)c2cc(F)c(C(C#N)C(=O)OCC)cc21", "note": "(stereo not drawn)", "values": [{"measurement": "Activity", "setting": "Staphylococcus aureus [1]", "value": "Active"}, {"measurement": "Activity", "setting": "Klebsiella pneumoniae [2]", "value": "Active"}, {"measurement": "Activity", "setting": "Staphylococcus aureus [3]", "value": "Active"}, {"measurement": "Activity", "setting": "Klebsiella pneumoniae [4]", "value": "Active"}, {"measurement": "Activity", "setting": "Staphylococcus aureus [5]", "value": "Dose-Dependent Effect"}, {"measurement": "Activity", "setting": "Klebsiella pneumoniae [6]", "value": "Dose-Dependent Effect"}, {"measurement": "Activity", "setting": "Cell membrane [7]", "value": "Dose-Dependent Effect"}, {"measurement": "Activity", "setting": "Cell membrane [8]", "value": "Dose-Dependent Effect"}, {"measurement": "Activity", "setting": "Cell membrane [9]", "value": "Dose-Dependent Effect"}, {"measurement": "Activity", "setting": "Cell membrane [10]", "value": "Active"}, {"measurement": "Activity", "setting": "Cell membrane [11]", "value": "Active"}, {"measurement": "Activity", "setting": "Cell membrane [11]; DISRUPTING AGENT", "value": "Active"}, {"measurement": "Activity", "setting": "Cell membrane [12]", "value": "Dose-Dependent Effect"}, {"measurement": "Activity", "setting": "Cell membrane [13]", "value": "Dose-Dependent Effect"}, {"measurement": "Activity", "setting": "Staphylococcus aureus [14]", "value": "Active"}, {"measurement": "Activity", "setting": "Klebsiella pneumoniae [15]", "value": "Active"}, {"measurement": "Activity", "setting": "Calf thymus DNA [16]", "value": "Active"}, {"measurement": "Activity", "setting": "Calf thymus DNA [17]", "value": "Active"}, {"measurement": "Activity", "setting": "Staphylococcus aureus [18]", "value": "Dose-Dependent Effect"}, {"measurement": "Activity", "setting": "Klebsiella pneumoniae [19]", "value": "Dose-Dependent Effect"}, {"measurement": "Activity", "setting": "Staphylococcus aureus [20]", "value": "Dose-Dependent Effect"}, {"measurement": "Activity", "setting": "Klebsiella pneumoniae [21]", "value": "Dose-Dependent Effect"}, {"measurement": "Activity", "setting": "Staphylococcus aureus [22]", "value": "Active"}, {"measurement": "Activity", "setting": "Klebsiella pneumoniae [23]", "value": "Active"}]}
{"smiles": "CCOC(=O)c1cn(Cc2ccc(Cl)cc2Cl)c2cc([C-](C#N)C(=O)OCC)c(F)cc2c1=O.[Na+]", "note": "(stereo not drawn)", "values": [{"measurement": "MIC", "setting": "Staphylococcus aureus [24]", "value": 16, "unit": "µg/mL"}, {"measurement": "MIC", "setting": "Staphylococcus aureus [25]", "value": 32, "unit": "µg/mL"}, {"measurement": "MIC", "setting": "Staphylococcus aureus [26]", "value": 0.25, "unit": "µg/mL"}, {"measurement": "MIC", "setting": "Staphylococcus aureus [27]", "value": 0.25, "unit": "µg/mL"}, {"measurement": "MIC", "setting": "Enterococcus faecalis", "value": 1, "unit": "µg/mL"}, {"measurement": "MIC", "setting": "Klebsiella pneumoniae [28]", "value": 0.25, "unit": "µg/mL"}, {"measurement": "MIC", "setting": "Escherichia coli [29]", "value": 0.5, "unit": "µg/mL"}, {"measurement": "MIC", "setting": "Escherichia coli [30]", "value": 0.25, "unit": "µg/mL"}, {"measurement": "MIC", "setting": "Pseudomonas aeruginosa [31]", "value": 4, "unit": "µg/mL"}, {"measurement": "MIC", "setting": "Pseudomonas aeruginosa [32]", "value": 0.5, "unit": "µg/mL"}, {"measurement": "MIC", "setting": "Acinetobacter baumannii", "value": 2, "unit": "µg/mL"}, {"measurement": "Activity", "setting": "Erythrocyte", "value": "Non-Toxic"}, {"measurement": "Activity", "setting": "[33]", "value": "Non-Toxic"}, {"measurement": "viability at 8 ug/ml", "setting": "[34]", "value": 70, "unit": "%"}]}
